Where two headings read alike, the source gives them in different places.
Tests used:
[1] = molecular target: MST4 (Homo sapiens (Human), UniProt Q9P289); test: Z-lyte biochemical IC50 assay (Invitrogen); details: ATP concentration matched the Km
[2] = tested on: PARP; test: Western blotting; assay type: cell-based; details: H929 cells, 1 μM, 24 hours
From the text: (§1) MM.1S, KMS20 and H929 cells are counted, diluted and plated. Cells are then […] with DMSO or different concentration of a compound of the present application for 6 hrs, 24 hrs or 48 hrs. MM cells are then collected and centrifuged at RT and the pellets are re-suspended in lysis buffer. Cell lysates are subjected to sodium dodecyl sulfate-polyacrylamide gel electrophoresis SDS-PAGE, transferred to nitrocellulose membranes, and immunoblotted with different antibodies.
(§2) MM.1S, KMS20 and H929 cells were counted, diluted and plated in six-well plates to a final concentration of 500,000 cells/well. Cells were then […] with DMSO or different concentration of a compound of the present application for 6 hrs, 24 hrs or 48 hrs. MM cells were then collected and centrifuged for 5 min, 1300 rpm at RT. The pellets were re-suspended in lysis buffer Laemli 1× (Laemli 5×: SDS 10%, DTT 500 mM, Tris-HCl pH6.8 0.4M, BromoFenol Blue, Glycerol 50%). Cell lysates were subjected to sodium dodecyl sulfate-polyacrylamide gel electrophoresis SDS-PAGE, transferred to nitrocellulose membranes, and immunoblotted with different antibodies: YAP1 (#4912), p-YAP1 (S127) (#13008), LATS1 (#9153), p-LATS1 (Thr1079) (#8654), MOB1 (#3863), p-MOB1 (Thr12) (#8843), p-MST1/p-MST2 (Thr183/Thr180) (#3681), p21 (#2947), PARP (#9532), ERK, STAT, and GAPDH (#5174) from Cell Signaling, Beverly, Mass., United States; STK4 (ab57836) (from Abcam, Cambridge, Mass., United States); PUMA (sc-28226), BAX (sc-20067), from Santa Cruz, Dallas, Tex., United States; β-actin from Sigma-Aldrich (St. Louis, Mo., United States). All antibodies were diluted 1:500, except for β-actin antibody (1:50,000 dilution). In FIG. 8, H929 cells were treated with Compound I-9 or DMSO at 1 μM concentration for 24 hours. Lysates were then obtained and immunoblot was performed using antibodies against PARP, YAP1, PUMA, BAX. p21, and GAPDH.

[3] = tested on: p21; test: Western blotting; assay type: cell-based; details: H929 cells, 1 μM, 24 hours
From the text: as §1, §2

[4] = tested on: BAX; test: Western blotting; assay type: cell-based; details: H929 cells, 1 μM, 24 hours
From the text: as §1, §2

[5] = tested on: PUMA; test: Western blotting; assay type: cell-based; details: H929 cells, 1 μM, 24 hours
From the text: as §1, §2

[6] = molecular target: JAK2 domain2 (Homo sapiens (Human), UniProt O60674); test: KiNativ assay; assay type: binding; details: H929 live cell
Sequence of JAK2 domain2 (O60674 whole entry, the tested form may be a part): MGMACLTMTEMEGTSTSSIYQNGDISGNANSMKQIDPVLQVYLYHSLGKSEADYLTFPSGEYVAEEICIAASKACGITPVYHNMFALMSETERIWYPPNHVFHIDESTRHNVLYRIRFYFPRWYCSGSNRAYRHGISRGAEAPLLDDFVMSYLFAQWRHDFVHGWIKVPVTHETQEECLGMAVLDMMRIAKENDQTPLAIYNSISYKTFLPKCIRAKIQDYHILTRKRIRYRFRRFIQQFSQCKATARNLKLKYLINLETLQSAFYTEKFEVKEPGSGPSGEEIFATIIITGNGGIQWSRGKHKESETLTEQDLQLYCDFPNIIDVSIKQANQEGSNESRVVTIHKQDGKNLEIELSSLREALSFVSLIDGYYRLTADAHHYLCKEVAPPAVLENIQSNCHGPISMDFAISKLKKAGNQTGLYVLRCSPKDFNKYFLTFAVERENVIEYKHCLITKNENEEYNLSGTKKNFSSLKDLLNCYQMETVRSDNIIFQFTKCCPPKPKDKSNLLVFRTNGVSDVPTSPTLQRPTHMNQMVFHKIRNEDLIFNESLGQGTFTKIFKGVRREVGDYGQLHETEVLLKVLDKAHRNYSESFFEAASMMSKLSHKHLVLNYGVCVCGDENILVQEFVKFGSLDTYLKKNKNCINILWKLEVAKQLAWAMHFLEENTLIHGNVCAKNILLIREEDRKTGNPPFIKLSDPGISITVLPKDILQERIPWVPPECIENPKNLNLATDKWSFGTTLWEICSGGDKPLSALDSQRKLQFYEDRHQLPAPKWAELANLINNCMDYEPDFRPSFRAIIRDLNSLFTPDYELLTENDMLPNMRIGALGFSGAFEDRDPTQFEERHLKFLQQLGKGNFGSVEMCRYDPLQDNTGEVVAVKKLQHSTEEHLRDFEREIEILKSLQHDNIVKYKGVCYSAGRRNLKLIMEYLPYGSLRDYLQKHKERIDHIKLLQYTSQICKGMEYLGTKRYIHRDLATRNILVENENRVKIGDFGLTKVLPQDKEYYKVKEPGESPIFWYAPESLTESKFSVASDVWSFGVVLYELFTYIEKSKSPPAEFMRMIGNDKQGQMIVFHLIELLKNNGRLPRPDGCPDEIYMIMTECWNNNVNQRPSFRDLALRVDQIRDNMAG
Summary of the method: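 H929 live-cell screen at 10 μM, run in duplicate. Kinase occupancy was assessed via the KiNativ platform, with IC50 determined by mass spectrometry.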

[7] = tested on: MM.1S cells; test: MTT cell growth assay with stromal cell supernatant; assay type: cell-based, human; details: 72 hours; for growth inhibitory effect of Lenalidomide/Pomalidomide in combination: in the presence of stromal cell supernatant
Procedure: FIG. 29 is a graph showing cell growth of MM.1S cells treated for 72 hours with Compound I-50 or I-51 alone or in combination with stromal cell supernatant in an MTT assay in triplicate.
FIG. 30 is a graph showing cell growth of MM.1S cells treated for 72 hours with Lenalidomide/Pomalidomide in the presence of stromal cell supernatant alone or in combination with Compound I-50 in an MTT assay in triplicate.
FIG. 31 is a graph showing cell growth of MM.1S cells treated for 72 hours with Lenalidomide/Pomalidomide in the presence of stromal cell supernatant alone or in combination with Compound I-51 in an MTT assay in triplicate.
MM. 1S, KMS20, H929 MM cells, RPMI/8226, OPM-2 and U266 were counted and diluted to a final concentration of 400,000 cells/mL. The cell were plated in 96-well plates and mixed with an equal volume of culture media containing DMSO or increasing concentration of a compound of the present application diluted in DMSO (the final DMSO concentration is equal between all tested samples), using a STARlet Robot (Hamiltonrobotics, Reno, Nev., United States). Cells with increasing concentration of compound of the present application and DMSO were […] at different time points (24 hrs to 72 hrs). Viability was assessed by MTT or Cell Titer 96® AQueous One Solution cell proliferation assay (Promega). Specifically, for the MTT assay, the 3-[4,5 dimethylthiazol-2-yl]-2,5 diphenyltetrazolium bromide-MTT (Sigma-Aldrich, St. Louis, Mo., Unites States) colorimetric survival assay was used. At the various time points (24-72 hrs), 10 μL of 5 mg/mL MTT were added to cells. After 4 hrs incubation at 37° C., medium was discarded and 100 μL MTT stop solution (DMSO or Isopropanol with 1 N HCl) was used to dissolve MTT metabolic products. Absorbance was read at 570/630 nm. For the Promega assay, at the various time points, 20 μL of Cell Titer solution is added to the cells. After 4 hrs of incubation at 37° C. absorbance was read at […].

[8] = molecular target: ITPK1 (Homo sapiens (Human), UniProt Q13572); test: KiNativ assay; assay type: binding; details: H929 live cell, range class
Sequence of ITPK1 (Q13572 whole entry): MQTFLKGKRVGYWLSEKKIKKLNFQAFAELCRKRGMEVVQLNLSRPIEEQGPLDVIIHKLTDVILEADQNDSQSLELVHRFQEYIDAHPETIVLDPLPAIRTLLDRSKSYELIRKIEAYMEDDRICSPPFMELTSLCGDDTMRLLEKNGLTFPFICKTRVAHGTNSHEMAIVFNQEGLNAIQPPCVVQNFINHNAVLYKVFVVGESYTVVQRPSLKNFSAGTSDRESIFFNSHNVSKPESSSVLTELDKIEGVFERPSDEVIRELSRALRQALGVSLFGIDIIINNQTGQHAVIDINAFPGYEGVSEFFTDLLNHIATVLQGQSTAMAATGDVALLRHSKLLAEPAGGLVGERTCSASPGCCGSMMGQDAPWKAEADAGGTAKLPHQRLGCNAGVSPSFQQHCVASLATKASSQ
Procedure: Biochemical IC50s of the compounds of the present disclosure against various kinases were measured in a KiNativ assay. Compounds were screened in duplicate at 10 μM in H929 live cell. IC50 was measured via Mass spectroscopy (MS).

[9] = range class, read-out: % inhibition

Sequence of MST4 (Q9P289 whole entry): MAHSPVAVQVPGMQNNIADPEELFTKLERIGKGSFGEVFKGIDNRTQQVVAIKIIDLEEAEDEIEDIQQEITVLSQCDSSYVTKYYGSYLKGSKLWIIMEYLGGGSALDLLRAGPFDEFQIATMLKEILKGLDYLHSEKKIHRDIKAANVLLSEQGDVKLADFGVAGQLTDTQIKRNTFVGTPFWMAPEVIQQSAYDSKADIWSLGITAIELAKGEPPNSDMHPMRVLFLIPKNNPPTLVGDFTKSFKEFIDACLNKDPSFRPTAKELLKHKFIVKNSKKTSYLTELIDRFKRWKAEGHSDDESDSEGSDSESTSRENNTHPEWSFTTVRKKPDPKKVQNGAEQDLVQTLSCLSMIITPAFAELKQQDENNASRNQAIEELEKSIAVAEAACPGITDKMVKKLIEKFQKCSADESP

Compound	inhibition at 10 µM [6, 9] [%]	inhibition at 10 µM ([6]; read-out: inhibition (10 μM)) [%]	susceptibility of cells on co-culture with stromal cell supernatant (cell growth, MTT) [7]	growth inhibitory effect of Lenalidomide/Pomalidomide in combination [7]	also measured
Nc1ncc(-c2cc([N+](=O)[O-])ccc2F)cc1-c1ccc2c(c1)CCNC2=O [Compound I-1, 6-(2-amino-5-(2-fluoro-5-nitrophenyl)pyridin-3-yl)-3,4-dihydroisoquinolin-1(2H)-one]					IC50 [1]: > 900 nM
Nc1ncc(-c2cccc([N+](=O)[O-])c2F)cc1-c1ccc2c(c1)CCNC2=O [Compound I-9, 6-(2-amino-5-(2-fluoro-3-nitrophenyl)pyridin-3-yl)-3,4-dihydroisoquinolin-1(2H)-one]					PARP cleavage [2]: induction of PARP cleavage; protein levels of p21 [3]: upregulation; protein levels of BAX [4]: upregulation; protein levels of PUMA [5]: upregulation
COc1cc(NS(=O)(=O)C2CC2)ccc1-c1cnc(N)c(-c2ccc3c(c2)CCNC3=O)c1 [Compound I-50, N-(4-(6-amino-5-(1-oxo-1,2,3,4-tetrahydroisoquinolin-6-yl)pyridin-3-yl)-3-methoxyphenyl) cyclopropanesulfonamide]	0	-71.2	enhanced the susceptibility	enhanced the growth inhibitory effect	
Nc1ncc(-c2ccc(NS(=O)(=O)C3CC3)cc2F)cc1-c1ccc2c(c1)CCNC2=O [Compound I-51, N-(4-(6-amino-5-(1-oxo-1,2,3,4-tetrahydroisoquinolin-6-yl)pyridin-3-yl)-3-fluorophenyl) cyclopropanesulfonamide]			enhanced the susceptibility	enhanced the growth inhibitory effect	
Nc1ncc(-c2ccc(NS(=O)(=O)C3CC3)cc2OC2CCCCC2)cc1-c1ccc2c(c1)CCNC2=O [Compound I-65, N-(4-(6-amino-5-(1-oxo-1,2,3,4-tetrahydroisoquinolin-6-yl)pyridin-3-yl)-3-(cyclohexyloxy)phenyl) cyclopropanesulfonamide]	0	18.8			inhibition at 10 µM [8]: > 100%

Reference: patent US10710978B2, “STK4 inhibitors for treatment of hematologic malignancies” (Dana-Farber Cancer Institute, Inc., priority 2015, dated 2020)
